Laboratory results taken from patent US7947695B2, “5-membered annelated heterocyclic pyrimidines as kinase inhibitors” (Janssen Pharmaceutica NV, priority 2005, dated 2011).

How the values were obtained:
AURORA A = biological target: T1, AURORA A (Homo sapiens, UniProt O14965); assay: In vitro filtration assay for AURORA A inhibitory activity; type: biochemical; conditions: Kemptide substrate, 1 μM unlabeled ATP, 25° C. 40 minutes, read-out: Aurora A see C.2 (pIC50) (converted)
T1 sequence (O14965 1-403): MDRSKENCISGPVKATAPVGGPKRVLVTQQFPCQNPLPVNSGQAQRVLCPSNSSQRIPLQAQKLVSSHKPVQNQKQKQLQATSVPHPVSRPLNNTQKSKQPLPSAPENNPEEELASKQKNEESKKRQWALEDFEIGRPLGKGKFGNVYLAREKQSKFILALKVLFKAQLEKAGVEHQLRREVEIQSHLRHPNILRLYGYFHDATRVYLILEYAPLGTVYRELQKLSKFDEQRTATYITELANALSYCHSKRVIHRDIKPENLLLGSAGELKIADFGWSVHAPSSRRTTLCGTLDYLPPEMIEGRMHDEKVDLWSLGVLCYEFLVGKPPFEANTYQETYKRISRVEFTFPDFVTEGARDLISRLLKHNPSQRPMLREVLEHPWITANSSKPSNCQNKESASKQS
Experimental: (§1) Compounds of the present invention were tested in an in vitro filtration assay assessing AURORA A activity by means of its substrate-phosphorylation activity using [^33P]-ATP as phosphor donor. The radioactive phosphorylated substrate is then captured on filtermats and the incorporated [^33P] quantitated using a phosphorage storage screen.
The Aurora-A kinase reaction is performed at 25° C. for 40 minutes in a 96-well microtiterplate. The 25 μl reaction volume contains 12 mM MOPS pH 7, 0.4 mM EDTA, 0.002% Brij35, 1% glycerol, 0.02% beta-mercapto-ethanol, 0.2 mg/ml BSA, 1 μM unlabeled ATP, […] [^33P]-ATP, 200 μM Kemptide, 3 ng Aurora A/well and 0.2% compound in 100% DMSO.
(§2) The reaction is stopped by adding 5 μl of a 3% phosphoric acid solution. 10 μl of the reaction mixture is then spotted onto a Filtermat P30 filter (Wallac) and washed 3 times for 5 min. in 75 mM phosphoric acid and 1 time for 5 min. in methanol prior to drying and quantification on the Typhoon (Amersham) using a phosphorage storage screen.
(§3) For each experiment, controls (containing enzyme (complex) and DMSO without compound), a blank incubation (containing DMSO but no enzyme (complex) or compound) and samples (containing enzyme (complex) and compound dissolved in DMSO) were run in parallel. All compounds tested were dissolved and eventually further diluted in DMSO. […] In each test, the blank value was subtracted from both the control and the sample values. The control sample represented maximal enzyme activity. For each sample, the amount of cpm was expressed as a percentage of the mean cpm value of the controls. When appropriate, IC50-values (concentration of the drug, needed to reduce the enzyme activity to 50% of the control) were computed using linear interpolation between the experimental points just above and below the 50% level. Herein the effects of test compounds are expressed as pIC50 (the negative log value of the IC50-value).

CDK4/cyclinD1 = CDK4/cyclinD1 (Homo sapiens, UniProt P11802); assay: In vitro filtration assay for CDK4 inhibitory activity (pRb phosphorylation, [33P]-ATP); type: biochemical; conditions: GST-pRb substrate, 1 μM unlabeled ATP, 25° C. 45 minutes, read-out: cdk4 filter (pIC50) (converted)
Experimental: as §1, with “CDK4” for “AURORA A”, “pRb-phosphorylation” for “substrate-phosphorylation”, “pRb” for “substrate”
The CDK4 kinase reaction is performed at 25° C. for 45 minutes in a 96-well microtiterplate. The 25 μl reaction volume contains 50 mM Hepes pH 7.5, 10 mM NaF, 10 mM MgCl2, 1 mM Na3VO4, 1 μM unlabeled ATP, 1 mM DTT, 0.5 μCi AT^33P, 0.76 μg/well GST-pRb, 50 ng CDK4/cyclinD1/well and 0.2% compound in 100% DMSO.
as §2, §3

[1] = biological target: CDK4/cyclinD1 enzyme complex (Homo sapiens, UniProt P11802); assay: In vitro scintillation proximity assay (SPA) for CDK4 inhibitory activity; type: biochemical; conditions: GST-pRb substrate, 33P-ATP, 25° C. 30 minutes, read-out: cdk4 SPA see C.4 (pIC50) (converted)
Experimental: Compounds of the present invention were tested in an in vitro assay based on SPA technology.
In principle, the assay relies upon the well established SPA technology for the detection of CDK4 phosphorylated proteins, i.e pRb. This phosphorylation is performed using I0 CDK4/cyclinD1 enzyme complex and ^33P-ATP as phosphor donor.
The CDK4 SPA kinase reaction is performed at 25° C. for 30 minutes in a 96-well microtiter plate. The 100 μl reaction volume contains 40 mM Hepes, 6 mM NaF, 6 mM MgCl2, 0.6 mM Na3VO4, 2 μg/ml Pepstatin, 2 μg/ml Leupeptin, 2 μg/ml Aprotinin, 50 μg/ml TLCK, 150 μg/ml DTT, 0.3 μg/ml benzamide, 0.1 μCi ^33P-ATP, 1.7 μg GST-pRb, 50 ng CDK4/cyclinD1/well and 0.2% compound in 100% DMSO. The reaction is stopped by adding to each well 100 μl of the glutathione coated SPA beads (10 mg/ml in PBS+10 mM EDTA+100 μM ATP+0.05% Triton X 100). The plates are then shaked at 300 rpm for 30 min to allow binding of the GST-tagged substrate to the glutathione coated beads. The beads are allowed to settle at the bottom of the plate for 30 minutes. The microtiterplates are centrifuges at 800 rpm for 10 minutes and the amount of phosphorylated (^33P) substrate is determined by counting (30 sec/well) in a microtiterplate scintillation counter.
as §3

AURORA B = AURORA B (Homo sapiens, UniProt Q96GD4); assay: In vitro filtration assay for AURORA B inhibitory activity; type: biochemical; conditions: peptide (C(LRRWSLG)×4), 1 μM unlabeled ATP, 25° C. 40 minutes, read-out: Aurora B see C.3 (pIC50) (converted)
Experimental: as §1, with “AURORA B” for “AURORA A”
The Aurora-B kinase reaction is performed at 25° C. for 40 minutes in a 96-well microtiterplate. The 25 μl reaction volume contains 60 mM Hepes pH 7.5, 3 mM MgCl2, 3 mM MnCl2, 3 μM Na3VO4, 50 μg/ml PEG20000, 1 μM unlabeled ATP, 1 mM DTT, 0.2 μCi AT^33P, 0.25 μg/well peptide (C(LRRWSLG)×4),100 ng Aurora-B/well and 0.2% compound in 100% DMSO. The reaction is stopped by adding 5 μl of a 3% phosphoric acid solution. 10 μl of the reaction mixture is then spotted onto a Filtermat P30 filter (Wallac) and washed 3 times for 5 min. in 75 mM phosphoric acid and 1 time for 5 min. in methanol prior to drying and quantification on the Typhoon (Amersham) using a phosphorage storage screen.
as §3

Sequence of AURORA B (Q96GD4 whole entry): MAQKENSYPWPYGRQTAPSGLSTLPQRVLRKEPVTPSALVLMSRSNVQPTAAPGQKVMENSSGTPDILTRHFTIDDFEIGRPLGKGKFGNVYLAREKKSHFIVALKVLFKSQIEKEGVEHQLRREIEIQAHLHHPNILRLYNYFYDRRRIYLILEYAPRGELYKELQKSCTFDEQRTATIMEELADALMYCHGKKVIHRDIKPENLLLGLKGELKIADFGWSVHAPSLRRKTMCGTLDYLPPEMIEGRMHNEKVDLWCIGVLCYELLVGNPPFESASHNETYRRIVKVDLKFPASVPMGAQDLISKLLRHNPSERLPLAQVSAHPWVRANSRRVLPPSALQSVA
Sequence of CDK4/cyclinD1 enzyme complex (P11802 whole entry): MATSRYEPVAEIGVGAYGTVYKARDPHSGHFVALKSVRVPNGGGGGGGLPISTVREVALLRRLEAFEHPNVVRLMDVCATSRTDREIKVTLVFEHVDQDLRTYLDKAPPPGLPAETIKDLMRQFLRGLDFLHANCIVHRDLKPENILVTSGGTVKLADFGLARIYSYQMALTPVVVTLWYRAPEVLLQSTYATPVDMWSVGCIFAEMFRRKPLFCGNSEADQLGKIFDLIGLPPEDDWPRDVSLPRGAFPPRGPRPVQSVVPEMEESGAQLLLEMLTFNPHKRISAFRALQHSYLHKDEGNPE
Sequence of CDK4/cyclinD1 enzyme complex (P24385 whole entry partner): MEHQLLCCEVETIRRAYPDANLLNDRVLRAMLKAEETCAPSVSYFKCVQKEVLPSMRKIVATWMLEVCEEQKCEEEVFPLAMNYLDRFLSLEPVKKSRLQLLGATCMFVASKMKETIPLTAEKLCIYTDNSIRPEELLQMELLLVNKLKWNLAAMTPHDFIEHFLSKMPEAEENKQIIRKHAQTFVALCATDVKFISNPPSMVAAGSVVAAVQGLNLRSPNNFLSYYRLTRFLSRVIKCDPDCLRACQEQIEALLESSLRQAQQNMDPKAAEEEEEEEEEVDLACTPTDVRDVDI
Sequence of CDK4/cyclinD1 (P11802 whole entry): as the sequence (P11802 whole entry) above
Sequence of CDK4/cyclinD1 (P24385 whole entry partner): as the sequence (P24385 whole entry partner) above

Structure (SMILES) | IC50 (AURORA A) [nM] | IC50 (CDK4/cyclinD1) [nM] | IC50 [1] [nM] | melting point [°C] | IC50 (AURORA B) [nM]
CN1CCN(c2ccc(Nc3ncc4cnn(C5CCCCC5)c4n3)cc2)CC1 [Co. No. 1] | 126 | 3.16 | 5.01 | 180 | 251
CN1CCN(c2ccc(Nc3ncc4ncn(C5CCCCC5)c4n3)cc2)CC1 [Co. No. 5] | > 10000 | 631 | 3160 | 203.5 to 203.6 | > 10000
CN1CCN(c2ccc(Nc3ncc4[nH]c(=O)n(C5CCCCC5)c4n3)cc2)CC1 [Co. No. 6] | > 10000 | 251 | 100 | 294 | > 10000
CN1CCN(c2ccc(Nc3ncc4c(=O)[nH]n(C5CCCCC5)c4n3)cc2)CC1 [Co. No. 7] |  | 79.4 | 158 | > 260 | 398
O=S(=O)(c1ccc(Nc2ncc3cnn(C4CCCCC4)c3n2)cc1)N1CCOCC1 [Co. No. 8] | 501 | 100 |  | 240 | > 10000
O=C(NC1CCN(CCO)CC1)c1ccc(Nc2ncc3cnn(C4CCCCC4)c3n2)cc1 [Co. No. 9] | 251 | 126 |  | 177 to 181 | 794
OCCCC1CCN(c2ccc(Nc3ncc4cnn(C5CCCCC5)c4n3)cc2)CC1 [compound 10] | 50.1 | 79.4 | 12.6 |  | > 10000
CN1CCN(c2ccc(Nc3ncc4cnn(C5CCCC5)c4n3)cc2)CC1 [compound 11] | 158 | 31.6 | 6.31 |  | 398
c1cc(N2CCOCC2)ccc1Nc1ncc2cnn(C3CCCCC3)c2n1 [compound 12] | 63.1 | 39.8 | 20 |  | 251
OCCCC1CCN(c2ccc(Nc3ncc4cnn(C5CCCC5)c4n3)cc2)CC1 [compound 13] | 50.1 | 63.1 | 50.1 |  | > 10000
CN1CCN(c2ccc(Nc3ncc4cnn(-c5ccccc5)c4n3)cc2)CC1 [compound 14] | 79.4 | 20 | 3.98 |  | 794
O=c1[nH]c2cnc(Nc3ccc(N4CCOCC4)cc3)nc2n1C1CCCCC1 [compound 78] |  | 1000 | 631 |  | 
CN1CCC(NCc2ccc(Nc3ncc4[nH]c(=O)n(C5CCCCC5)c4n3)cc2)CC1 [compound 87] | > 10000 | 3980 |  |  | > 10000
CN1CCN(c2ccc(Nc3ncc4[nH]c(=O)n([C@H]5C[C@@H]6CC[C@H]5C6)c4n3)cc2)CC1 [compound 88] | 1580 | 2000 |  |  | > 10000
CN1CCN(c2ccc(Nc3ncc4c(n3)N(C3CCCCC3)C(=O)C4)cc2)CC1 [compound 89] | 1580 | 316 |  |  | 3160
CN1CCN(c2ccc(Nc3ncc4c(=O)[nH]n(C5CCCC5)c4n3)cc2)CC1 [compound 91] | 7940 | 631 | 1260 |  | > 10000
O=c1[nH]n(C2CCCC2)c2nc(Nc3ccc(N4CCC(CCCO)CC4)cc3)ncc12 [compound 92] |  | 6310 | 2510 |  | > 10000
O=c1[nH]n(C2CCCC2)c2nc(Nc3ccc(N4CCOCC4)cc3)ncc12 [compound 93] | 1580 | 5010 | 2510 |  | > 10000
O=c1[nH]n(C2CCCCC2)c2nc(Nc3ccc(N4CCC(CCCO)CC4)cc3)ncc12 [compound 94] | 3160 | 1580 | 1000 |  | > 10000
O=C(NC1CCOCC1)c1ccc(Nc2ncc3cnn(C4CCCCC4)c3n2)cc1 [compound 95] | 126 | 794 |  |  | 631
O=C(NCCN1CCOCC1)c1ccc(Nc2ncc3cnn(C4CCCCC4)c3n2)cc1 [compound 96] | 100 | 631 |  |  | 1260
COCCCN1CCC(NC(=O)c2ccc(Nc3ncc4cnn(C5CCCCC5)c4n3)cc2)CC1 [compound 97] | 398 | 631 |  |  | 501
